# Where two headings read alike, the source gives them in different places. No end group written: not given here.
# Experiments:
# E. coli ATCC 25922 [1] = format: cell-based; conditions: for MIC E. coli 25922: broth microdilution, MHB, ~5 × 10^5 CFU/mL, 18 h, 37 °C, OD 620 nm, 100 to 0.2 µM; for MIC against E. coli 25922, MHB: no serum
# E. coli ATCC 25922 [2] = assay: Bactericidal activity (MBC); format: cell-based; conditions: aliquots of no-growth MIC wells on LBA, 18 h, 37 °C; kills 99.9%
# Description: (§1) Bactericidal activity was evaluated by sowing an aliquot of Luria Bertani agar (LBA) in the wells where no growth had been detected in the MIC assay.
# E. coli ML35 43827 [3] = assay: Bactericidal activity (MBC); format: cell-based
# Description: as §1
# P. aeruginosa 27853 [4] = assay: Bactericidal activity (MBC); format: cell-based; conditions: LBA, 18 h, 37 °C
# Description: as §1
# P. aeruginosa 27853 [5] = assay: MIC by broth microdilution; format: cell-based; conditions: MHB, 18 h, 37 °C
# [6] = test system: human red blood cells (hRBC); assay: Haemolytic activity (MHC); format: cell-based; conditions: for MHC (minimum haemolytic concentration): 5% v/v hRBC in 1X PBS, 200–0.39 µM, 1 h, 37 °C, absorbance 560 nm
# Description: A haemolytic activity assay was used for determining whether peptides acted on hRBC membrane by calculating the minimum haemolytic concentration (MHC). Briefly, 100 µL serial dilutions of peptides were incubated in a 96-well plate with an equal volume of a fresh hRBC suspension at 5% v/v in 1X PBS (200–0.39 µM final peptide concentrations). The samples were spun at 1000× g for 5 min after having been incubated at 37 °C for 1 h and a Multiskan spectrometer (Thermo Fisher) was used for measuring 100 µL supernatant absorbance at 560 nm. Treated hRBC absorbance 0.1% Triton X-100 or 100% haemolysis was used as positive control.
# E. coli ML35 43827 [7] = format: cell-based; conditions: broth microdilution
# [8] = test system: E. coli 35218 (ampicillin-resistant ATCC 35218 strain); format: cell-based; conditions: broth microdilution
# E. coli 35218 = format: cell-based
# Description: as §1
# E. coli ATCC 11775 [9] = format: cell-based; conditions: broth microdilution
# [10] = test system: E. coli N°4 (clinical isolate); conditions: broth microdilution; for MIC E. coli N°4: clinical isolate from urine
# Description: (§2) The standard broth microdilution method was used for determining the peptides’ MIC [41]. […] Bacteria in Müller–Hinton broth (MHB) were used as negative control. […] The MIC was determined as the lowest peptide concentration at which bacterial growth was not detected.
# (§3) Approximately 50 bacterial samples were then collected from E. coli-infected patients for evaluating activity of the peptides against some clinical isolates. These samples were identified and biochemically and metabolically characterised using the VITEK-2 equipment. Isolates were profiled regarding their resistance or susceptibility to a panel of conventionally used antibiotics.
# [11] = test system: E. coli N°40 (clinical isolate); conditions: broth microdilution; for MIC E. coli N°40: clinical isolate from blood
# Description: as §2, §3
# [12] = test system: E. coli N°44 (clinical isolate); conditions: broth microdilution; for MIC E. coli N°44: clinical isolate from blood, ESBL (+)
# Description: as §2, §3
# [13] = test system: E. coli N°44 (clinical isolate); format: cell-based
# Description: as §1
# (§4) Approximately 50 bacterial samples were then collected from E. coli-infected patients for evaluating activity of the peptides against some clinical isolates. These samples were identified and biochemically and metabolically characterised using the VITEK-2 equipment. Isolates were profiled regarding their resistance or susceptibility to a panel of conventionally used antibiotics. Three E. coli isolates having different resistance profiles were then selected following such characterisation (Appendix A): • Isolate 4 (from urine): extended spectrum beta-lactamase (ESBL) (-), resistant to ampicillin, quinolones and co-trimoxazole. • Isolate 40 (from blood): ESBL (-), resistant to ampicillin, 1st-generation cephalosporins and co-trimoxazole. • Isolate 44 (from blood): ESBL (+), resistant to aminoglycosides, quinolones, β-lactams (including 1st-, 3rd- and 4th-generation cephalosporins).
# E. coli 25922 = assay: Antibacterial activity in the presence of human sera; format: cell-based; conditions: for MIC against E. coli 25922, Serum (without Pre-Incubation): peptide diluted in fresh human sera (100%), then inoculum in MHB ~5 × 10^5 CFU/mL, 18 h, 37 °C
# Description: The second assay involved peptide dilution in fresh human sera (100%) pre-incubated for 6 h at 37 °C in a humid chamber before putting them in contact with the bacterial inoculum diluted in MHB (~5 × 10^5 CFU/mL). The assay was incubated and read as mentioned in the microdilution section.
# [14] = test system: E. coli (ATCC strains and clinical isolates); assay: MIC summarised over several E. coli strains; format: cell-based
# Description: The standard broth microdilution method was used for determining the peptides’ MIC [41]. Briefly, serial peptide dilutions (100 to 0.2 µM concentration) were incubated in 96-well plates at 100 μL/well final volume for 18 h at 37 °C in a damp chamber with ~5 × 10^5 CFU/mL bacterial inoculum (calculated from the calibration curve equation previously obtained for each strain (Figure S1)). Optical density (OD) was measured at 620 nm after 18 h on a microplate reader. Bacteria in Müller–Hinton broth (MHB) were used as negative control. […] The MIC was determined as the lowest peptide concentration at which bacterial growth was not detected.
# E. coli ATCC 25922 [15] = assay: Potential for inducing bacterial resistance (serial subculture at 0.5 MIC); format: cell-based; conditions: repeated treatment with 0.5× MIC, 18 days, two independent assays in duplicate
# Description: The MIC against this subculture was then determined by micro-dilution in broth. […] Two independent assays were carried out in duplicate. MIC changes were plotted for each subculture (day of assay).
# E. coli ML35 = assay: Permeabilising internal membrane (ONPG); format: cell-based; conditions: 1× MIC
# E. coli [16] = test system: E. coli
# Description: (§6) The checkerboard method was used for evaluating peptide antibacterial activity in combination with antibiotics [43]. […] Absorbance was measured at 620 nm and individual peptide and antibiotic MIC and combined MIC were obtained. […] The fractional inhibitory concentration index (FICI) was then calculated as the sum of peptide FIC + antibiotic FIC. A ≤ 0.5 FICI indicated synergy, 0.5 to ≤4 FICI indifference, and >4 FICI antagonism [45].
# (§7) The results were interpreted by taking the lowest checkerboard FIC index (previously reported method 3) [44].
# E. coli [17] = test system: E. coli; remark: listed apart in the source
# Description: as §6, §7
# [18] = test system: E. coli clinical isolate 40; assay: Resistance profile of clinical isolate (VITEK-2); format: cell-based; conditions: Escherichia coli, isolate from blood
# Source text: as §3
# [19] = test system: E. coli clinical isolate 44; assay: Resistance profile of clinical isolate (VITEK-2); format: cell-based; conditions: Escherichia coli, isolate from blood
# Source text: as §3
# [20] = test system: E. coli clinical isolate 4; assay: Resistance profile of clinical isolate (VITEK-2); format: cell-based; conditions: Escherichia coli, isolate from urine
# Source text: as §3
# E. coli [21] = assay: microbe, parasite or virus in culture; conditions: Escherichia coli, read-out: Individual gentamicin MIC
# Description: as §6, §7
# HeLa human cell line = conditions: cited from earlier work
# Source text: (§5) Its therapeutic index (TI) calculated for E. coli ML35 is 0.045, indicating low selectivity [[ ...
# HepG2 human cell line = conditions: cited from earlier work
# Source text: as §5
# [22] = test system: human red blood cells (hRBC); conditions: cited from earlier work
# Source text: as §5
# E. coli ATCC 11775 [23] = assay: Bactericidal activity (MBC); format: cell-based
# Description: as §1
# [24] = test system: E. coli N°40 (clinical isolate); format: cell-based
# Description: as §1, §4
Compound,MIC E. coli 25922 (E. coli ATCC 25922 [1]),"MIC against E. coli 25922, MHB (E. coli ATCC 25922 [1])",MBC E. coli 25922 (E. coli ATCC 25922 [2]),MBC E. coli ML35 43827 (E. coli ML35 43827 [3]),MIC P. aeruginosa 27853 (P. aeruginosa 27853 [5]),MHC (minimum haemolytic concentration) [6],MIC E. coli ML35 43827 (E. coli ML35 43827 [7]),MIC E. coli 35218 [8],MBC E. coli 35218 (E. coli 35218),MIC E. coli 11775 (E. coli ATCC 11775 [9]),MIC E. coli N°4 [10],MIC E. coli N°40 [11],MIC E. coli N°44 [12],MBC E. coli N°44 [13],"MIC against E. coli 25922, Serum (without Pre-Incubation) (E. coli 25922)",fold increase in MIC over initial MIC (E. coli ATCC 25922 [15]),also measured
RKKKMKKALQYIKLLKE-NH2 [Peptide 35409-1],25 µM,25 µM,25 µM,3 µM,100 µM,>200 µM,3 µM,6 µM,6 µM,>100 µM,>100 µM,25 µM,12.5 µM,100 µM,12.5 µM,eight-fold,"MBC P. aeruginosa 27853 (P. aeruginosa 27853 [4]): 100 µM; haemolysis relative to average MIC ([6]; concentration as multiple of average MIC 14.3 µM): did not induce haemolysis at 14-fold higher concentrations; MIC against E. coli 25922, Serum (6 h Pre-Incubation) (E. coli 25922; peptide in fresh human sera (100%) pre-incubated 6 h at 37 °C before inoculum, stability read-out): 50 µM; average MIC against E. coli [14]: 14.3 µM; time at which maximum permeabilisation was reached (E. coli ML35; 1X PBS, 1.5 mM ONPG, 37 °C, 405 nm every 30 min for 4.5 h, triplicate): 1.5 h; permeabilisation of E. coli internal membrane (E. coli ML35; ONPG, 405 nm, 4.5 h): did act on E. coli internal membrane; Interpretation (E. coli [16]; peptide + ciprofloxacin): Indifference; x MIC Combination, Peptide (E. coli [16]; with ciprofloxacin, fraction of individual peptide MIC (individual = 1)): 1/1 x MIC; Interpretation (E. coli [17]; peptide + gentamicin): Indifference; x MIC Combination, Peptide (E. coli [17]; with gentamicin, fraction of individual peptide MIC (individual = 1)): 1/0.25 x MIC"
"CN(C)[C@@H]1C(O)=C(C(N)=O)C(=O)[C@@]2(O)C(O)=C3C(=O)c4c(O)cccc4[C@@](C)(O)[C@H]3C[C@@H]12 [Tetracycline, tetracycline, reference compound]",–,–,–,–,–,–,–,–,–,–,–,–,–,–,–,128 fold,–
"CNC(C)C1CCC(N)C(OC2C(N)CC(N)C(OC3OCC(C)(O)C(NC)C3O)C2O)O1 (stereo not drawn) [Gentamicin, gentamicin]",–,–,–,–,–,–,–,–,–,–,–,–,–,–,–,–,MIC E. coli N°4 (antibiotics) ([10]; clinical isolate): 2 µg/mL; MIC E. coli N°40 (antibiotics) ([11]; clinical isolate): 1 µg/mL; MIC E. coli N°44 (antibiotics) ([12]; clinical isolate): >16 µg/mL; MIC [18]: ≤ 1 µg/mL; MIC [19]: ≥ 16 µg/mL; MIC [20]: ≤ 1 µg/mL; MIC (E. coli [21]): 0.5 µg/mL
"RYRRKKKMKKALQYIKLLKE-NH2 [Peptide 35409, reference compound]",25 µM,25 µM,50 µM,25 µM,>100 µM,1.56 µM,25 µM,6 µM,6 µM,>100 µM,–,–,–,–,25 µM,–,cytotoxic activity against HeLa (HeLa human cell line): did not have cytotoxic activity; cytotoxic activity against HepG2 (HepG2 human cell line): did not have cytotoxic activity; MHC against human red blood cells [22]: 1.5 µM
KKMKKALQYIKLLK-NH2 [Peptide 35409-13],50 µM,50 µM,50 µM,50 µM,>100 µM,>200 µM,25 µM,25 µM,100 µM,100 µM,>100 µM,50 µM,25 µM,50 µM,50 µM,–,"MBC E. coli 11775 (E. coli ATCC 11775 [23]): > 100 µM; MBC E. coli N°40 [24]: 100 µM; FIC Index (E. coli [16]; peptide + ciprofloxacin, lowest checkerboard FIC index (method 3)): 3; FIC P (peptide) (E. coli [16]; with ciprofloxacin): 1; FIC Index (E. coli [17]; peptide + gentamicin, lowest checkerboard FIC index (method 3)): 0.75; FIC P (peptide) (E. coli [17]; with gentamicin): 0.25"
